Results on one substance are retold here after US11198741B2, “Medicines for topic use based on sulfated hyaluronic acid as activating or inhibiting agent of the cytokine activity” (Fidia Farmaceutici S.p.A., priority 2009, dated 2021).

One data set relates to IL-7. Nature of the data set: Protein synthesis of IL-7 in human PBMC (SearchLight array). The following applies: not stimulated or stimulated with LPS or PHA (10 μg/ml), 24 hours, FIG. 7: 1 mg/ml, vs HA.
Data set [1] concerns Herpes Simplex Virus-1 (HSV-1: KOS, F and McIntyre strain). Description: Inhibition of viral cytopathogenicity in E6SM fibroblast cells, HSV-1. The format is cell-based. Conditions: 2nd day of incubation, numbers only in FIG. 10. In general terms: Cytopathic effects are the visible damage that an infection or toxin causes in cultured cells.
For another data set, the system named is IL-2. Description: Protein synthesis of IL-2 in human PBMC (SearchLight array). The following applies: not stimulated or stimulated with LPS or PHA (10 μg/ml), 24 hours, FIG. 6: HAS1 0.1 mg/ml, HAS3 1 mg/ml, vs HA.
Data set [2] is classed as in vitro ADME. The procedure:
The skin used for effecting the experiments is obtained from the abdomen of patients between 30 and 50 years old, subjected to surgical abdominal reductions. The sections of skin with a complete thickness are frozen after the surgical intervention and preserved at −20° C. until the moment of the experiment, in which the samples are defrozen at room temperature and accurately separated from the adipose tissue. The skin is divided into square sections of 2.5 cm^2, immersed for a minute in water at a temperature of 60° C. and with the help of specific tweezers, the corneal layer and epidermis (SCE) are accurately separated from the underlying tissues. The samples obtained are analyzed with an optical microscope and discarded if punctures are found. The SCE is assembled in the lower part of a Franz cell with the epidermis facing downwards and the corneal layer in contact with the donor solution which is situated above. The permeation area is a circular surface of 0.636 cm^2. […] Each experiment is effected triply and the result is intended as the average of the 3, expressed as quantity of analyte which has crossed the surface unit of skin after 24 hours. […] The concentration of diclofenac was determined through reverse-phase HPLC analysis on an apparatus Agilent 1200 Series and UV detection (254 nm), C18 column, eluent acetonitrile/water/acetic acid 50/46/4 with a flow of 1.2 ml/min.

Protocol for IL-2: (§1) For these experimentations, mononucleate cells of human peripheral blood (PBMC) were adopted, deriving from various donors for evaluating the effect of HAS on the production of the cytokines listed above, using:
(§2) The separation of the PBMC (Bøyum A., Scand J Clin Lab Invest 21 Suppl, 1968, 97:77-89) was effected using the product Ficoll-Paque PLUS (GE Healthcare) and following the protocol indicated by the supplier. At day zero 100,000 cells were plated per well (using plates with 96 wells) in 200 μl of medium RPMI 1640, to which 10% of fetal bovine serum, HEPES 10 mM, Glutamine 2 mM, 1% Penicillin-Streptomycin 100 U/ml, had been added. […] The cells were treated separately with the three compounds at a concentration of 0.1 mg/ml or 1 mg/ml. After 24 hours of incubation at 37° C. (5% CO2), 100 μl of supernatant were taken from each well in order to analyze the production of IL-2, IL-7, IL-10 and IL-12.
(§3) The quantification of the inflammation mediators was effected by means of the SearchLight® technology, using a Custom Human 9-flex Array plate following the protocol indicated by the supplier in the technical card.
Protocol for IL-7: as §1, §2, §3

For “sulfated hyaluronic acid degree 3 [HAS3]”, the “synthesis of IL-7” value with IL-7 is “significantly reducing”. In data set [1], the “antiviral activity (inhibition of the cytopathogenicity of the virus) vs HSV-1” value was “powerful antiviral action”. Besides, in the data set with IL-2, the “synthesis of IL-2” value was “significantly reducing”. Moreover, the “total permeate quantity of diclofenac in 24 h” value in data set [2] is “doubling”.
